Data as given in patent US6962912B2, “Substituted pyrazolo[4,3-e]diazepines, pharmaceutical compositions containing them, use as medicinal products and processes for preparing them” (Warner-Lambert LLC, priority 2000, dated 2005).

Tests used:
PDE4 = assay: Inhibition of PDE4 (cytosolic enzyme preparation from U937 line), compared with rolipram; assay type: biochemical, human; conditions: PDE4 enzyme preparation obtained from the U937 line

SMILES	IC50 (PDE4) [µM]	melting point [°C]
CCCn1nc(C(C)CC)c2c1C(=O)NCC(c1ccccc1)=N2 (racemic) [Example 70, (±)3-sec-Butyl-5-phenyl-1-propyl-6,7-dihydro-1H-pyrazolo-[4,3-e][1,4]diazepin-8-one]	0.011	
CCCn1nc(C(C)CC)c2c1C(=O)NCC(c1ccc(OC)cc1)=N2 (racemic) [Example 90, (±)3-sec-Butyl-5-(4-methoxyphenyl)-1-propyl-6,7-dihydro-1H-pyrazolo[4,3-e][1,4]diazepin-8-one]	0.193	85
CCn1nc(-c2ccccc2)c2c1C(=O)NCC(c1ccccc1)=N2 [Example 4, 1-Ethyl-3,5-diphenyl-6,7-dihydro-1H-pyrazolo[4,3-e][1,4]diazepin-8-one]	0.0084	
CCn1nc(C)c2c1C(=O)NCC(c1ccc3ccccc3c1)=N2 [Example 8, 1-Ethyl-3-methyl-5-naphth-2-yl-6,7-dihydro-1H-pyrazolo[4,3-e][1,4]diazepin-8-one]	0.21	193
CCn1nc(C)c2c1C(=O)NCC(c1sccc1Cl)=N2 [Example 9, 5-(3-Chlorothien-2-yl)-1-ethyl-3-methyl-6,7-dihydro-1H-pyrazolo[4,3-e][1,4]diazepin-8-one]	0.15	213
CCn1nc(C)c2c1C(=O)NCC(c1ccc(F)cc1)=N2 [Example 13, 1-Ethyl-5-(4-fluorophenyl)-3-methyl-6,7-dihydro-1H-pyrazolo[4,3-e][1,4]diazepin-8-one]	0.13	174
CCn1nc(C)c2c1C(=O)NCC(c1ccccc1N)=N2 [Example 19, 5-(2-Aminophenyl)-1-ethyl-3-methyl-6,7-dihydro-1H-pyrazolo[4,3-e][1,4]diazepin-8-one]	0.087	156
CCCn1nc(C)c2c1C(=S)NCC(c1ccccc1)=N2 [Example 22, 3-Methyl-5-phenyl-1-propyl-6,7-dihydro-1H-pyrazolo[4,3-e][1,4]diazepin-8-thione]	0.028	156
CCCn1nc(C)c2c1C(=O)NCC(c1ccc(N)cc1)=N2 [Example 29, 5-(4-Aminophenyl)-3-methyl-1-propyl-6,7-dihydro-1H-pyrazolo[4,3-e][1,4]diazepin-8-one]	0.33	225
Cc1nn(CC(F)(F)F)c2c1N=C(c1ccccc1)CNC2=O [Example 30, 3-Methyl-5-phenyl-1-(2.2.2-trifluoroethyl)-6,7-dihydro-1H-pyrazolo[4,3-e][1,4]diazepin-8-one]	0.3	
CCn1nc(C(C)C)c2c1C(=O)NCC(c1ccc(N3CCCC3)cc1)=N2 [Example 38, 1-Ethyl-3-isopropyl-5-(4-pyrrolidin-1-yl-phenyl)-6,7-dihydro-1H-pyrazolo[4,3-e][1,4]diazepin-8-one]	0.65	
CCn1nc(C(C)(C)C)c2c1C(=O)NCC(c1ccc(OC)cc1OC)=N2 [Example 47, 3-tert-Butyl-5-(2,4-dimethoxyphenyl)-1-ethyl-6,7-dihydro-1H-pyrazolo[4,3-e][1,4]diazepin-8-one]	0.021	
CCCn1nc(C(C)(C)C)c2c1C(=O)NCC(C(C)(C)C)=N2 [Example 48, 3,5-Di-tert-butyl-1-propyl-6,7-dihydro-1H-pyrazolo[4,3-e][1,4]diazepin-8-one]	0.0081	
CCCn1nc(C(C)(C)C)c2c1C(=O)NCC(c1ccc(C#N)cc1)=N2 [Example 50, 4-(3-tert-Butyl-8-oxo-1-propyl-1,6,7,8-tetrahydro-1H-pyrazolo[4,3-e][1,4]diazepin-5-yl)benzonitrile]	0.016	
Cc1nn(CC2CC2)c2c1N=C(c1ccccc1)CNC2=O [Example 58, 1-Cyclopropylmethyl-3-methyl-5-phenyl-6,7-dihydro-1H-pyrazolo[4,3-e][1,4]diazepin-8-one]	0.14	
CCn1nc(C(C)C)c2c1C(=O)NCC(c1ccc(C(F)(F)F)cc1)=N2 [Example 61, 1-Ethyl-3-isopropyl-5-(4-trifluoromethylphenyl)-6,7-dihydro-1H-pyrazolo[4,3-e][1,4]diazepin-8-one]	0.0079	
CCn1nc(C)c2c1C(=O)NCC(c1ccc(C(F)(F)F)cc1)=N2 [Example 62, 1-Ethyl-3-methyl-5-(4-trifluoromethylphenyl)-6,7-dihydro-1H-pyrazolo[4,3-e][1,4]diazepin-8-one]	0.26	
CCn1nc(C2CCCCC2)c2c1C(=O)NCC(c1ccccc1)=N2 [Example 72, 3-Cyclohexyl-1-ethyl-5-phenyl-6,7-dihydro-1H-pyrazolo-[4,3-e][1,4]diazepin-8-one]	0.0018	
CCn1nc(CC2CCCCC2)c2c1C(=O)NCC(c1ccncc1)=N2 [Example 76, 3-Cyclohexylmethyl-1-ethyl-5-pyrid-4-yl-6,7-dihydro-1H-pyrazolo[4,3-e][1,4]diazepin-8-one]	0.0082	
CCCn1nc(CC2CCCCC2)c2c1C(=O)NCC(c1ccncc1)=N2 [Example 78, 3-Cyclohexylmethyl-1-propyl-5-pyrid-4-yl-6,7-dihydro-1H-pyrazolo[4,3-e][1,4]diazepin-8-one]	0.021	

More lines, now with the values ahead:

IC50 (PDE4) [µM]	melting point [°C]	SMILES
0.033	50	CCC(C)c1nn(CC)c2c1N=C(c1ccc(OC)cc1)CNC2=O (racemic) [Example 89, (±)3-sec-Butyl-1-ethyl-5-(4-methoxyphenyl)-6,7-dihydro-1H-pyrazolo[4,3-e][1,4]diazepin-8-one]
0.39		CCOC(=O)c1nn(CC)c2c1N=C(c1ccccc1)CNC2=O [Example 5, Ethyl 1-ethyl-8-oxo-5-phenyl-1,6,7,8-tetrahydropyrazolo-[4,3-e][1,4]diazepin-3-carboxylate]
0.13	223	CCn1nc(C)c2c1C(=O)NCC(c1ccc(Br)cc1)=N2 [Example 7, 5-(4-Bromophenyl)-1-ethyl-3-methyl-6,7-dihydro-1H-pyrazolo[4,3-e][1,4]diazepin-8-one]
1.29		CCn1nc(C)c2c1C(=O)NCC(CCC(=O)OC)=N2 [Example 10, Methyl 3-(1-ethyl-3-methyl-8-oxo-1,6,7,8-tetrahydro-pyrazolo[4,3-e][1,4]diazepin-5-yl)propanoate]
0.12	215	CCn1nc(C)c2c1C(=O)NCC(c1ccc(Cl)cc1)=N2 [Example 11, 5-(4-Chlorophenyl)-1-ethyl-3-methyl-6,7-dihydro-1H-pyrazolo[4,3-e][1,4]diazepin-8-one]
0.081	173	CCn1nc(C)c2c1C(=O)NCC(c1cccc(Br)c1)=N2 [Example 14, 5-(3-Bromophenyl)-1-ethyl-3-methyl-6,7-dihydro-1H-pyrazolo-[4,3-e][1,4]diazepin-8-one]
0.1	120	CCn1nc(C)c2c1C(=O)NCC(c1cccc(OC)c1)=N2 [Example 18, 1-Ethyl-5-(3-methoxyphenyl)-3-methyl-6,7-dihydro-1H-pyrazolo[4,3-e][1,4]diazepin-8-one]
0.099	214	CCn1nc(C)c2c1C(=O)NCC(c1ccccc1OC)=N2 [Example 20, 1-Ethyl-5-(2-methoxyphenyl)-3-methyl-6,7-dihydro-1H-pyrazolo[4,3-e][1,4]diazepin-8-one]
0.0038	191	CCn1nc(C(C)C)c2c1C(=O)NCC(c1ccc(N)cc1)=N2 [Example 27, 5-(4-Aminophenyl)-1-ethyl-3-isopropyl-6,7-dihydro-1H-pyrazolo[4,3-e][1,4]diazepin-8-one]
0.048		CCCn1nc(C(C)C)c2c1C(=O)NCC(c1ccc(OC)cc1OC)=N2 [Example 43, 5-(2,4-Dimethoxyphenyl)-3-isopropyl-1-propyl-6,7-dihydro-1H-pyrazolo[4,3-e][1,4]diazepin-8-one]
0.0011		CCn1nc(C(C)(C)C)c2c1C(=O)NCC(C(C)(C)C)=N2 [Example 44, 3,5-Di-tert-butyl-1-ethyl-6,7-dihydro-1H-pyrazolo[4,3-e][1,4]diazepin-8-one]
0.032		CCCn1nc(C(C)(C)C)c2c1C(=O)NCC(c1ccc(C)cc1)=N2 [Example 49, 3-tert-Butyl-1-propyl-5-p-tolyl-6,7-dihydro-1H-pyrazolo[4,3-e][1,4]diazepin-8-one]
0.06		CCCn1nc(C(C)(C)C)c2c1C(=O)NCC(c1ccc(OC)cc1OC)=N2 [Example 51, 3-tert-Butyl-5-(2,4-dimethoxyphenyl)-1-propyl-6,7-dihydro-1H-pyrazolo[4,3-e][1,4]diazepin-8-one]
0.5		CCn1nc(C)c2c1C(=O)NCC(c1ccc(N(S(=O)(=O)c3ccccc3)S(=O)(=O)c3ccccc3)cc1)=N2 [Example 56, N-[4-(1-Ethyl-3-methyl-8-oxo-1,6,7,8-tetrahydro-pyrazolo[4,3-e][1,4]diazepin-5-yl)phenyl]-(phenylsulphonyl)benzenesulphonamide]
0.51		C=CCn1nc(C)c2c1C(=O)NCC(c1ccccc1)=N2 [Example 59, 1-Allyl-3-methyl-5-phenyl-6,7-dihydro-1H-pyrazolo[4,3-e][1,4]diazepin-8-one]
0.0054		CCCn1nc(C2CCCCC2)c2c1C(=O)NCC(c1ccccc1)=N2 [Example 74, 3-Cyclohexyl-5-phenyl-1-propyl-6,7-dihydro-1H-pyrazolo-[4,3-e][1,4]diazepin-8-one]
0.21		CCCn1nc(CC2CCCCC2)c2c1C(=O)NCC(c1ccccc1)=N2 [Example 77, 3-Cyclohexylmethyl-5-phenyl-1-propyl-6,7-dihydro-1H-pyrazolo[4,3-e][1,4]diazepin-8-one]
0.011		CCn1nc(CC2CCCCC2)c2c1C(=O)NCC(c1ccccc1)=N2 [Example 79, 3-Cyclohexylmethyl-1-ethyl-5-phenyl-6,7-dihydro-1H-pyrazolo[4,3-e][1,4]diazepin-8-one]
	209	CCn1nc(C)c2c1C(=[SH]c1ccc(OC)cc1)NCC=N2 [Example 83, 1-Ethyl-S-(4-methoxyphenyl)-3-methyl-6,7-dihydro-1H-pyrazolo[4,3-e][1,4]diazepin-8-thione]
1.58		CCOCc1nn(CC)c2c1N=C(c1ccccc1)CNC2=O [Example 97, 3-Ethoxymethyl-1-ethyl-5-phenyl-6,7-dihydro-1H-pyrazolo-[4,3-e][1,4]diazepin-8-one]
